Results from patent EP2077855B1, “THERAPEUTIC USE OF GBA2” (Yildiz, Dr. med., Yildiz, priority 2006, dated 2008).
“And” between values parts separate entries of the source, which are not always exact repeats. Equal values may be shown once.

How the values were obtained:
[1] = target: T1, recombinant GBA2 produced in insect cells (His-tagged isolated enzyme) (Homo sapiens, UniProt Q9HCG7); test: Glucosidase activity of recombinant GBA2 produced in insect cells upon addition of test compounds; type: biochemical; parameters: enzyme activity: unit not given here; conditions: insect cell produced recombinant GBA2, incubation time 15; for mean value: mean counts
T1 construct: His tag; made in house; host or cells: insect cells
T1 sequence (Q9HCG7 1-927): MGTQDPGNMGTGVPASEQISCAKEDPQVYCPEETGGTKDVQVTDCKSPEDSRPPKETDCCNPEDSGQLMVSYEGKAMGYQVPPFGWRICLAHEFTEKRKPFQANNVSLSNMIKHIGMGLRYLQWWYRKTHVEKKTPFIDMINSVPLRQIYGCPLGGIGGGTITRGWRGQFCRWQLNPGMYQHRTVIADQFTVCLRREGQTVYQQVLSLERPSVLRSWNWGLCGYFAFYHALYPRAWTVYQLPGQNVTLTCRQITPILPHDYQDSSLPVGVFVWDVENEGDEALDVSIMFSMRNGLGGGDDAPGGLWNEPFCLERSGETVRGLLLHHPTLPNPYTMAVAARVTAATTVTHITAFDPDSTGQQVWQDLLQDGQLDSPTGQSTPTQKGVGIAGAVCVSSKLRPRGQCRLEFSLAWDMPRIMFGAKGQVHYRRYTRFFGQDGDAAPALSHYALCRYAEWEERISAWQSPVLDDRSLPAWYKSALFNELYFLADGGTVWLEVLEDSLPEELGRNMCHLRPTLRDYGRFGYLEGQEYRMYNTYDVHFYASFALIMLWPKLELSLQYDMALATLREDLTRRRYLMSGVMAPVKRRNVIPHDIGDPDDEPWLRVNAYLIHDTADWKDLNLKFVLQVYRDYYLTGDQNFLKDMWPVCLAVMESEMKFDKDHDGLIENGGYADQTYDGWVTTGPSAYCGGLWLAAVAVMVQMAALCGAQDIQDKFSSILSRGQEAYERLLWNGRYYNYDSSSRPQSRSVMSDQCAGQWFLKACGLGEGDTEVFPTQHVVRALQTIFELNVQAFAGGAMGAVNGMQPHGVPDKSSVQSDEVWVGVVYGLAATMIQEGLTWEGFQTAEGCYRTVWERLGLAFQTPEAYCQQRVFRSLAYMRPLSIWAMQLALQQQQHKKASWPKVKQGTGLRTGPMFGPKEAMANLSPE
Description: (§1) Following the method for measurement of glucosidase activity described in ((Matern, H. et al., J. Biol. Chem. 272:11,261-11,267 (1997), the effect of several test compounds (like bivalent cations and detergents) on the glucosidase activity of recombinant GBA2 produced in insect cells (His-tagged isolated enzyme) and of human liver microsomes was compared. The glucosidase activity of human liver was tested in a microsomal preparation. The tested compounds were: cations including nickel, zinc, cobalt, manganese, calcium, magnesium and barium; detergents including Chaps, Triton X100, taurocholate, Brij58; and phospholipids including lyso-phosphatidylcholine, sphingomyelin, phosphatidylcholine, phosphatidyl-serine, phosphatidylethanolamine and phosphatidylinositol. The enzyme activity results for the recombinant GBA2 were similar or even better than the results for human liver microsomal GBA2 activity. Representative results are summarized in Table 5; the data for the remaining test compounds is not shown. Result: Expression of GBA2 in insect cells leads to recombinant GBA2 whose glucosidase activity is similar to or even higher than the glucosidase activity of human liver microsomes. Table 5: Glucosidase activity of microsomal human liver and GBA2 from insect cells upon addition of sphingomyelin (A, B) and cobalt (C, D). The microsomal preparations were diluted 1:8 with Chaps before use. Measurements were performed in duplicate or triplicate.

[2] = target: T2, human liver microsomal GBA2 activity (Homo sapiens, UniProt Q9HCG7); test: Glucosidase activity of human liver microsomes upon addition of test compounds; type: biochemical; parameters: enzyme activity: unit not given here; conditions: human liver microsomes diluted 1:8 with Chaps, incubation time 15; for mean value: mean counts
T2 construct: from tissue; host or cells: human liver microsomes
T2 sequence (Q9HCG7 1-927): T1 sequence (Q9HCG7 1-927)
Description: as §1

[Co+2] [cobalt]
% of control ([1]; cobalt 0,01mM): 93% | counts ([1]; cobalt 0,01mM): 157,63 and 157,78 | enzyme activity ([1]; cobalt 0,01mM): 0,1288 | % of control ([1]; cobalt 0,1mM): 115% | counts ([1]; cobalt 0,1mM): 161,62 and 167,45 | enzyme activity ([1]; cobalt 0,1mM): 0,1604 | % of control ([1]; cobalt 0,05mM): 117% | counts ([1]; cobalt 0,05mM): 167,53 and 152,62 and 174,62 | enzyme activity ([1]; cobalt 0,05mM): 0,1622 | % of control ([1]; cobalt 0,5mM): 273% | counts ([1]; cobalt 0,5mM): 206,30 and 217,85 | enzyme activity ([1]; cobalt 0,5mM): 0,3802 | % of control ([1]; cobalt 1mM): 360% | counts ([1]; cobalt 1mM): 237,74 and 260,51 and 216,07 | enzyme activity ([1]; cobalt 1mM): 0,5005 | % of control ([1]; cobalt 5mM): 97% | counts ([1]; cobalt 5mM): 208,68 and 319,94 | enzyme activity ([1]; cobalt 5mM): 0,6216 | mean value ([1]; cobalt 0,01mM): 157,71 | mean value ([1]; cobalt 0,1mM): 164,54 | mean value ([1]; cobalt 0,05mM): 164,92 | mean value ([1]; cobalt 0,5mM): 212,08 | mean value ([1]; cobalt 1mM): 238,11 | mean value ([1]; cobalt 5mM): 264,31 | % of control ([2]; cobalt 0,01mM): 87% | counts ([2]; cobalt 0,01mM): 180,77 and 193,04 and 191,08 | enzyme activity ([2]; cobalt 0,01mM): 1,0961 | % of control ([2]; cobalt 0,05mM): 140% | counts ([2]; cobalt 0,05mM): 223,91 and 223,75 and 225,71 | enzyme activity ([2]; cobalt 0,05mM): 1,7647 | % of control ([2]; cobalt 0,001mM): 81% | enzyme activity ([2]; cobalt 0,001mM): 1,0240 | % of control ([2]; cobalt 1mM): 155% | counts ([2]; cobalt 1mM): 234,69 and 233,72 and 236,26 | enzyme activity ([2]; cobalt 1mM): 1,9576 | % of control ([2]; cobalt 0,005mM): 84% | counts ([2]; cobalt 0,005mM): 192,98 and 191,68 and 174,52 | enzyme activity ([2]; cobalt 0,005mM): 1,0610 | % of control ([2]; cobalt 5mM): 163% | counts ([2]; cobalt 5mM): 233,59 and 235,10 and 251,13 | enzyme activity ([2]; cobalt 5mM): 2,0510 | mean value ([2]; cobalt 0,01mM): 188,30 | mean value ([2]; cobalt 0,05mM): 224,46 | mean value ([2]; cobalt 0,001mM): 84,391 | mean value ([2]; cobalt 1mM): 234,89 | mean value ([2]; cobalt 0,005mM): 186,39 | mean value ([2]; cobalt 5mM): 239,941

sphingomyelin
mean value ([1]; sphingomyelin 0,3mM): 674,56 | mean value ([1]; sphingomyelin 0,15mM): 591,95 | mean value ([1]; sphingomyelin 0,75mM): 537,54 | mean value ([1]; sphingomyelin 3mM): 652,37 | mean value ([1]; sphingomyelin 6mM): 493,49 | mean value ([1]; sphingomyelin 12mM): 510,93 | mean value ([1]; sphingomyelin 1,5mM): 643,44 | % of control ([1]; sphingomyelin 0,3mM): 104% | counts ([1]; sphingomyelin 0,3mM): 675,57 and 673,54 | enzyme activity ([1]; sphingomyelin 0,3mM): 2,5788 | % of control ([1]; sphingomyelin 0,15mM): 89% | counts ([1]; sphingomyelin 0,15mM): 579,66 and 604,24 | enzyme activity ([1]; sphingomyelin 0,15mM): 2,1969 | % of control ([1]; sphingomyelin 0,75mM): 79% | counts ([1]; sphingomyelin 0,75mM): 541,76 and 533,32 | enzyme activity ([1]; sphingomyelin 0,75mM): 1,9454 | % of control ([1]; sphingomyelin 3mM): 100% | counts ([1]; sphingomyelin 3mM): 699,42 and 605,31 | enzyme activity ([1]; sphingomyelin 3mM): 2,4762 | % of control ([1]; sphingomyelin 6mM): 70% | counts ([1]; sphingomyelin 6mM): 473,49 and 513,48 | enzyme activity ([1]; sphingomyelin 6mM): 1,7418 | % of control ([1]; sphingomyelin 12mM): 74% | counts ([1]; sphingomyelin 12mM): 489,65 and 532,21 | enzyme activity ([1]; sphingomyelin 12mM): 1,8224 | % of control ([1]; sphingomyelin 1,5mM): 98% | counts ([1]; sphingomyelin 1,5mM): 630,13 and 656,75 | enzyme activity ([1]; sphingomyelin 1,5mM): 2,4349 | mean value ([2]; sphingomyelin 0,3mM): 195,30 | mean value ([2]; sphingomyelin 0,15mM): 206,72 | mean value ([2]; sphingomyelin 0,75mM): 206,21 | mean value ([2]; sphingomyelin 3mM): 214,01 | mean value ([2]; sphingomyelin 6mM): 208,40 | mean value ([2]; sphingomyelin 12mM): 195,24 | mean value ([2]; sphingomyelin 1,5mM): 201,66 | % of control ([2]; sphingomyelin 0,3mM): 68% | counts ([2]; sphingomyelin 0,3mM): 187,68 and 202,92 | enzyme activity ([2]; sphingomyelin 0,3mM): 1,4089 | % of control ([2]; sphingomyelin 0,15mM): 78% | counts ([2]; sphingomyelin 0,15mM): 215,51 and 197,93 | enzyme activity ([2]; sphingomyelin 0,15mM): 1,6200 | % of control ([2]; sphingomyelin 0,75mM): 78% | counts ([2]; sphingomyelin 0,75mM): 206,90 and 205,52 | enzyme activity ([2]; sphingomyelin 0,75mM): 1,6106 | % of control ([2]; sphingomyelin 3mM): 85% | counts ([2]; sphingomyelin 3mM): 225,57 and 202,45 | enzyme activity ([2]; sphingomyelin 3mM): 1,7548 | % of control ([2]; sphingomyelin 6mM): 80% | counts ([2]; sphingomyelin 6mM): 207,54 and 209,26 | enzyme activity ([2]; sphingomyelin 6mM): 1,6511 | % of control ([2]; sphingomyelin 12mM): 68% | counts ([2]; sphingomyelin 12mM): 189,25 and 201,23 | enzyme activity ([2]; sphingomyelin 12mM): 1,4077 | % of control ([2]; sphingomyelin 1,5mM): 74% | counts ([2]; sphingomyelin 1,5mM): 207,84 and 195,48 | enzyme activity ([2]; sphingomyelin 1,5mM): 1,5264
